Assays:
[1] = tested on: BALB/c mice; assay: Peritonitis: Syk-dependent peritoneal neutrophil recruitment; assay type: in vivo; details: single oral administration of 100 mg/kg, Bordetella pertussis toxin
[2] = tested on: Spleen B lymphocyte cells; assay: In vitro B lymphocyte proliferation induced by anti-IgM; assay type: cell-based, BALB/c mice
Method: • 1) Chemical products and antibodies. A chemical bank of 3000 molecules (a varied subset) was acquired from ChemBridge, Inc. (San Diego, Calif.). Stocks of solutions of small molecules were prepared at a rate of 10 mM in DMSO (dimethylsulphoxide), except for C-13 (methyl 2-{5-[(3-benzyl-4-oxo-2-thioxo-1,3-thiazolidin-5-ylidene)methyl]-2-furyl}benzoate, ChemBridge ID No. 6197026) prepared in DMF (dimethylformamide). Unless specified otherwise, all the reagents were supplied by Sigma. Dinitrophenyl (DNP) hapten was acquired from Calbiochem. Sepharose GammaBind G and all the secondary antibodies were supplied by GE Health Amersham Biosciences. […] The binding of G4G11 with Syk was assessed by adding the 9E10 monoclonal antibody conjugated with HRP detecting the amino acid sequence EQKLISEEDLN of human c-myc protein located at the C-terminal end of the scFv fragment. To generate Syk mutants, targeted mutagenesis was used on GST:Syk 6-242 protein and the binding of G4G11 with the mutants was assessed in the presence of 5 μM of C-13. • 3) Cells, culture conditions and functional tests. […] The level of β-hexosaminidase released was measured 10 min later and the TNF-α titration was performed by means of a cytotoxicity test on L929 cells as described previously^10, 3 hours after stimulation. […]

SMILES: COC(=O)c1ccccc1-c1ccc(/C=C2/SC(=S)N(Cc3ccccc3)C2=O)o1 [Molecule C-13, methyl 2-{5-[(3-benzyl-4-oxo-2-thioxo-1,3-thiazolidin-5-ylidene)methyl]-2-furyl}benzoate]
- Syk-dependent neutrophil recruitment induced by thioglycollate in the peritoneal cavity [1]: did not affect
- BCR-dependent B lymphocyte in vitro proliferation [2]: inhibited in a dose-dependent fashion
